Patent publication US8785488B2 (Exelixis Patent Company LLC, priority 2009, dated 2014)
Where two headings read alike, the source gives them in different places.

How the values were obtained:
human TGR5 (h-TGR5) = molecular target: T1, human TGR5 (h-TGR5) (Homo sapiens, UniProt Q8TDU6); assay: TGR5/CRE-Luciferiase Assay (HEK 293 hTGR5/CRE-Luc cells); format: cell-based
T1 construct: expressed in transfected cells
T1 sequence (Q8TDU6 1-330): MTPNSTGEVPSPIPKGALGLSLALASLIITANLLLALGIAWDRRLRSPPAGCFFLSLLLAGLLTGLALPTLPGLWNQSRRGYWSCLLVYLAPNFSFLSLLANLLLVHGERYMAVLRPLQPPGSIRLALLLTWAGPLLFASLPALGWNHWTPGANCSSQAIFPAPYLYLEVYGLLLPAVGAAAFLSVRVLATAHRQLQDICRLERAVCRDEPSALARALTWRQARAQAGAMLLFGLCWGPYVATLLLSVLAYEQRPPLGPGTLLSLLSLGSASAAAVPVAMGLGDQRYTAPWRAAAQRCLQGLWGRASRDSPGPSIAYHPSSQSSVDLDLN
Summary of the method: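 HEK293 cells stably carrying hTGR5 and a CRE-luciferase reporter were exposed to serially diluted compounds (diluted in DMEM with 5% DMSO) for 6 h. Cells were then lysed in luciferase buffer, luminescence was read, and EC50 values were derived from dose-response curves.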

h-TGR5 = molecular target: T2, h-TGR5 (Homo sapiens, UniProt Q8TDU6); assay: TGR5 cAMP Assay using Cisbio cAMP Dynamic2 htrf kit (hTGR5CRE-luc HEK 293 cells); format: cell-based
T2 construct: expressed in transfected cells
T2 sequence (Q8TDU6 1-330): T1 sequence (Q8TDU6 1-330)
Summary of the method: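 […], 4000 hTGR5CRE-luc HEK 293 cells per well, with 0.5 mM IBMX and d2-cAMP, were incubated 30 min at room temperature with compounds in 8-point half-log series, in quadruplicate.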

[1] = h-TGR5 CRE-Luc EC50, Table 1, read-out: CRE-Luc (EC50)
[2] = h-TGR5 cAMP EC50, Table 1, read-out: cAMP (EC50)

SMILES	EC50 (human TGR5 (h-TGR5); [1])	EC50 (h-TGR5; [2])	EC50 (human TGR5 (h-TGR5); HEK 293 hTGR5/CRE-Luc cells, 6 hours incubation, luciferase activity, Table 2, read-out: h-TGR5CRE-Luc EC50 (CRE-Luc))	EC50 (h-TGR5; hTGR5CRE-luc HEK 293 cells, htrf cAMP, Table 2, read-out: h-TGR5 cAMP EC50 (cAMP))
CC(C)(c1ccc(Cl)c(Cl)c1)c1cnc(SCc2c(F)cc(-c3nnn[nH]3)cc2F)n1-c1ccc(F)cc1 [5-{4-[({5-[1-(3,4-dichlorophenyl)-1-methylethyl]-1-(4-fluorophenyl)-1H-imidazol-2-yl}thio)methyl]-3,5-difluorophenyl}-1H-tetrazole]	100 to 1000 nM	100 to 1000 nM		
COc1cc(C(C)(C)c2c(C)nc(SCc3c(F)cccc3Cl)n2-c2ccc(F)cc2)ccc1Cl [2-{[(2-chloro-6-fluorophenyl)methyl]thio}-5-{1-[4-chloro-3-(methyloxy)phenyl]-1-methylethyl}-1-(4-fluorophenyl)-4-methyl-1H-imidazole]	100 to 1000 nM	100 to 1000 nM		
COc1cc(C(C)(C)c2cnc(SCc3c(F)cc(C(=O)O)cc3Cl)n2-c2cccnc2)ccc1Cl [3-chloro-4-{[(5-{1-[4-chloro-3-(methyloxy)phenyl]-1-methylethyl}-1-pyridin-3-yl-1H-imidazol-2-yl)thio]methyl}-5-fluorobenzoic acid]	1000 to 10000 nM	1000 to 10000 nM		
COc1cc(C(C)(C)c2cnc(SCc3ccc(S(=O)(=O)NC(=O)Nn4cccc4)cc3Cl)n2-c2ccc(F)cc2)ccc1Cl [3-chloro-4-({[5-{1-[4-chloro-3-(methyloxy)phenyl]-1-methylethyl}-1-(4-fluorophenyl)-1H-imidazol-2-yl]thio}methyl)-N-[(1H-pyrrol-1-ylamino)carbonyl]benzenesulfonamide]	100 to 1000 nM	100 to 1000 nM		
CC(C)(c1ccc(Cl)c(Cl)c1)c1cnc(SCc2ccc(S(=O)(=O)O)cc2Cl)n1-c1ccc(F)cc1 [3-chloro-4-[({5-[1-(3,4-dichlorophenyl)-1-methylethyl]-1-(4-fluorophenyl)-1H-imidazol-2-yl}thio)methyl]benzenesulfonic acid]	100 to 1000 nM	100 to 1000 nM		
CC(C)(c1ccc2cccnc2c1)c1nnc(SCc2c(F)cccc2Cl)n1-c1ccc(F)cc1 [Example 47]			< 100 nM	< 100 nM
CC(C)(c1ccc(F)c(Cl)c1)c1cnc(SCc2ccc(S(=O)(=O)NC(=O)NN3CCCC3)cc2Cl)n1-c1ccc(F)cc1 [3-chloro-4-[({5-[1-(3-chloro-4-fluorophenyl)-1-methylethyl]-1-(4-fluorophenyl)-1H-imidazol-2-yl}thio)methyl]-N-[(pyrrolidin-1-ylamino)carbonyl]benzenesulfonamide]	100 to 1000 nM	100 to 1000 nM		
CC(C)(c1ccc(Cl)c(Cl)c1)c1c(Cl)nc(SCc2c(F)cc(C(=O)O)cc2F)n1-c1ccc(F)cc1 [4-[({4-chloro-5-[1-(3,4-dichlorophenyl)-1-methylethyl]-1-(4-fluorophenyl)-1H-imidazol-2-yl}thio)methyl]-3,5-difluorobenzoic acid]	100 to 1000 nM	100 to 1000 nM		
CC(C)(c1ccc(Cl)c(Cl)c1)c1cnc(SCc2ccc(Cl)c(-c3nnn[nH]3)c2)n1-c1ccc(F)cc1 [5-{2-chloro-5-[({5-[1-(3,4-dichlorophenyl)-1-methylethyl]-1-(4-fluorophenyl)-1H-imidazol-2-yl}thio)methyl]phenyl}-1H-tetrazole]	100 to 1000 nM	100 to 1000 nM		
CC(C)(c1ccc(Cl)c(Cl)c1)c1cnc(SCc2ccc(F)cc2Cl)n1-c1cccnc1 [3-(2-{[(2-chloro-4-fluorophenyl)methyl]thio}-5-[1-(3,4-dichlorophenyl)-1-methylethyl]-1H-imidazol-1-yl)pyridine]	100 to 1000 nM	1000 to 10000 nM		

The next lines start with the values.

EC50 (human TGR5 (h-TGR5); [1])	EC50 (h-TGR5; [2])	EC50 (human TGR5 (h-TGR5); HEK 293 hTGR5/CRE-Luc cells, 6 hours incubation, luciferase activity, Table 2, read-out: h-TGR5CRE-Luc EC50 (CRE-Luc))	EC50 (h-TGR5; hTGR5CRE-luc HEK 293 cells, htrf cAMP, Table 2, read-out: h-TGR5 cAMP EC50 (cAMP))	SMILES
< 100 nM	< 100 nM			COc1cc(C(C)(C)c2cnc(SCc3ccc(C(=O)O)cc3F)n2-c2ccc(F)cc2)ccc1Cl [4-({[5-{1-[4-chloro-3-(methyloxy)phenyl]-1-methylethyl}-1-(4-fluorophenyl)-1H-imidazol-2-yl]thio}methyl)-3-fluorobenzoic acid]
< 100 nM	< 100 nM			COc1cc(C(C)(C)c2cnc(SCc3c(F)cc(OCCNC(=N)N)cc3Cl)n2-c2ccc(F)cc2)ccc1Cl [1-(2-{[3-chloro-4-({[5-{1-[4-chloro-3-(methyloxy)phenyl]-1-methylethyl}-1-(4-fluorophenyl)-1H-imidazol-2-yl]thio}methyl)-5-fluorophenyl]oxy}ethyl)guanidine]
100 to 1000 nM	100 to 1000 nM			CC(C)(c1ccc(Cl)c(Cl)c1)c1cnc(SCc2ccc(C(=O)NCC(=O)O)cc2F)n1-c1ccc(F)cc1 [N-({4-[({5-[1-(3,4-dichlorophenyl)-1-methylethyl]-1-(4-fluorophenyl)-1H-imidazol-2-yl}thio)methyl]-3-fluorophenyl}carbonyl)glycine]
100 to 1000 nM	100 to 1000 nM			COc1cc(-n2c(C(C)(C)c3ccc(S(N)(=O)=O)c(Cl)c3)cnc2SCc2ccc(S(=O)(=O)NC(=O)NN3CCCCC3)cc2Cl)ccc1F [4-{[(5-{1-[4-(aminosulfonyl)-3-chlorophenyl]-1-methylethyl}-1-[4-fluoro-3-(methyloxy)phenyl]-1H-imidazol-2-yl)thio]methyl}-3-chloro-N-[(piperidin-1-ylamino)carbonyl]benzenesulfonamide]
100 to 1000 nM	100 to 1000 nM			COc1ccc(C(C)(C)c2cnc(SCc3ccc(Cl)c(C(=O)O)c3)n2-c2ccc(F)cc2)cc1Cl [2-chloro-5-({[5-{1-[3-chloro-4-(methyloxy)phenyl]-1-methylethyl}-1-(4-fluorophenyl)-1H-imidazol-2-yl]thio}methyl)benzoic acid]
< 100 nM	< 100 nM			Cc1cc(-n2c(C(C)(C)c3ccc(Cl)c(Cl)c3)cnc2SCc2c(F)cc(C(=O)O)cc2F)ccc1F [4-[({5-[1-(3,4-dichlorophenyl)-1-methylethyl]-1-(4-fluoro-3-methylphenyl)-1H-imidazol-2-yl}thio)methyl]-3,5-difluorobenzoic acid]
100 to 1000 nM	100 to 1000 nM			CC(C)(c1ccc(F)c(F)c1)c1cnc(SCc2ccc(S(N)(=O)=O)cc2Cl)n1-c1ccc(F)cc1 [3-chloro-4-[({5-[1-(3,4-difluorophenyl)-1-methylethyl]-1-(4-fluorophenyl)-1H-imidazol-2-yl}thio)methyl]benzenesulfonamide]
< 100 nM	100 to 1000 nM			COc1cc(C(C)(C)c2cnc(SCc3ccc(CCCNC(=N)N)c(C(=O)O)c3)n2-c2ccc(F)cc2)ccc1Cl [2-(3-{[amino(imino)methyl]amino}propyl)-5-({[5-{1-[4-chloro-3-(methyloxy)phenyl]-1-methylethyl}-1-(4-fluorophenyl)-1H-imidazol-2-yl]thio}methyl)benzoic acid]
< 100 nM	< 100 nM			COc1cc(C(C)(C)c2cnc(SCc3c(F)cc(OCCNC(=N)N)cc3Cl)n2-c2ccc(F)cc2)ccc1F [1-(2-{[3-chloro-5-fluoro-4-({[5-{1-[4-fluoro-3-(methyloxy)phenyl]-1-methylethyl}-1-(4-fluorophenyl)-1H-imidazol-2-yl]thio}methyl)phenyl]oxy}ethyl)guanidine]
< 100 nM	< 100 nM			COc1ccc(C(C)(C)c2cnc(SCc3c(F)cc(C(=O)O)cc3F)n2-c2ccc(F)cc2)cc1Cl [4-({[5-{1-[3-chloro-4-(methyloxy)phenyl]-1-methylethyl}-1-(4-fluorophenyl)-1H-imidazol-2-yl]thio}methyl)-3,5-difluorobenzoic acid]
< 100 nM	< 100 nM			COc1ccc(C(C)(C)c2cnc(CSc3c(F)cccc3Cl)n2-c2ccc(F)cc2)cc1OC [5-{1-[3,4-bis(methyloxy)phenyl]-1-methylethyl}-2-{[(2-chloro-6-fluorophenyl)thio]methyl}-1-(4-fluorophenyl)-1H-imidazole]
< 100 nM	< 100 nM			CC(C)(c1ccc(Cl)c(Cl)c1)c1cnc(SCc2ccc(Cl)c(S(N)(=O)=O)c2)n1-c1ccc(F)cc1 [2-chloro-5-[({5-[1-(3,4-dichlorophenyl)-1-methylethyl]-1-(4-fluorophenyl)-1H-imidazol-2-yl}thio)methyl]benzenesulfonamide]
< 100 nM	< 100 nM			COc1cc(C(C)(C)c2cnc(SCc3c(F)cc(C(=O)NCS(=O)(=O)O)cc3Cl)n2-c2ccc(F)cc2)ccc1Cl [({[3-chloro-4-({[5-{1-[4-chloro-3-(methyloxy)phenyl]-1-methylethyl}-1-(4-fluorophenyl)-1H-imidazol-2-yl]thio}methyl)-5-fluorophenyl]carbonyl}amino) methanesulfonic acid]
< 100 nM	< 100 nM			COc1cc(C(C)(C)c2cnc(SCc3c(F)cc(C(=O)O)cc3F)n2-c2ccc(F)cc2)ccc1Cl [4-({[5-{l-[4-chloro-3-(methyloxy)phenyl]-1-methylethyl}-1-(4-fluorophenyl)-1H-imidazol-2-yl]thio}methyl)-3,5-difluorobenzoic acid]
< 100 nM	100 to 1000 nM			CC(=O)N1CCC(CSc2ncc(C(C)(C)c3ccc(Cl)c(Cl)c3)n2-c2ccc(F)cc2)CC1 [1-acetyl-4-[({5-[1-(3,4-dichlorophenyl)-1-methylethyl]-1-(4-fluorophenyl)-1H-imidazol-2-yl}thio)methyl]piperidine]
